Experiments:
[1] = molecular target: T1, 20S Human Erythrocyte Proteasome (HEP) (Homo sapiens, UniProt P20618+P28074); experiment: Chymotrypsin-like activity of 20S Human Erythrocyte Proteasome (HEP), IC50 determination; type: biochemical; settings: assay of Example C, inhibition of HEP
T1 construct: 20S Human Erythrocyte Proteasome (HEP), purchased from Immatics Biotechnologies Inc; purchased Immatics Biotechnologies Inc., Tübingen, Germany; host or cells: human erythrocytes (natural source)
Procedure, shortened: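 20S proteasome at 0.2 μg/mL (about 0.6 nM catalytic sites) in 20 mM Tris with 0.04% SDS, preincubated 15 min at 37° C with inhibitor before Suc-LLVY-AMC (100 μM final). AMC fluorescence read in the linear range; triplicates, IC50 from concentration series.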

[2] = molecular target: T2, proteasome in Molt-4 cells (human leukemia) (Homo sapiens, UniProt P20618+P28074); type: cell-based; settings: assay of Example E, inhibition of MOLT4; read-out: MOLT4 (EC50)
T2 sequence (P28074 60-263): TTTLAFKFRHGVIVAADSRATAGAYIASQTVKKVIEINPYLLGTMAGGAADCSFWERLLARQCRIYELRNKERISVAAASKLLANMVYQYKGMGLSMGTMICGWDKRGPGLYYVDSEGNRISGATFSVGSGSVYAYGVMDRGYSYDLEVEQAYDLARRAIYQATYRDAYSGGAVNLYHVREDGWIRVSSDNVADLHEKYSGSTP
T2 sequence (P20618 29-241): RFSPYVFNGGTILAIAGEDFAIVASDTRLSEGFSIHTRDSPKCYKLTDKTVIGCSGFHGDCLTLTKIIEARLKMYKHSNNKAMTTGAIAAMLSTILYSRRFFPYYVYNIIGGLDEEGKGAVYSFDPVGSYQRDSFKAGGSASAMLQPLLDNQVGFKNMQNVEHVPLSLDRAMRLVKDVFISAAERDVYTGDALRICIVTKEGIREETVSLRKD
Procedure, shortened: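 Intact Molt-4 cells (6×10^6 cells/mL) in HEPES-buffered saline were preincubated with inhibitor 15 min at 37 °C, then given cell-permeable MeOSuc-FLF-AFC at 25 μM final.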

Compound | IC50 [1] | EC50 [2]
CC(C)C[C@H](NC(=O)[C@H](CCCNC(=N)N[N+](=O)[O-])NC(=O)CCCCCc1ccccc1)B1O[C@@H]2C[C@@H]3C[C@@H](C3(C)C)[C@]2(C)O1 [D.3.131, 6-Phenylhexanamide,N-[(1S)-1-[[[(1R)-1-[(3aS,4S,6S,7aR)-hexahydro-3a,5,5-trimethyl-4,6-methano-1,3,2-benzodioxaborol-2-yl]-3-methylbutyl]amino]carbonyl]-4-[[imino(nitroamino)methyl]amino]butyl]] | < 10 nM | < 200 nM
CCCCCCCC(=O)N[C@@H](CCCNC(=N)N[N+](=O)[O-])C(=O)N[C@@H](CC(C)C)B(O)O [E.2.2, Boronic acid, [(1R)-1-[[(2S)-5-[[imino(nitroamino)methyl]amino]-2-[(octanoyl)amino]-1-oxopentyl]amino]-3-methylbutyl]] | < 10 nM | 200 to 2000 nM
CC(C)C[C@H](NC(=O)[C@@H](NC(=O)c1cnccn1)[C@@H](C)O)B1O[C@@H]2C[C@@H]3C[C@@H](C3(C)C)[C@]2(C)O1 [D.8.4, 2-Pyrazinecarbossamide, N-[(1S,2R)-1-[[[(1R)-1-[(3aS,4S, 6S,7aR)-hexahydro-3a,5,5-trimethyl-4,6-methano-1,3,2-benzodioxaborol-2-yl]-3-melthylbutyl]amino]carbonyl]-2-hydroxypropyl]] | < 100 nM | < 200 nM
Cc1ccc(CCCC(=O)N[C@@H](CCCNC(=N)N[N+](=O)[O-])C(=O)N[C@@H](CC(C)C)B(O)O)cc1 [D.7.3, Boronic acid, [(1R)-1-[[(2S)-5-[[imino(nitroamino)methyl]amino]-2-[(4-(4-methylphenyl)butanoyl)amino]-1-oxopentyl]amino]-3-methylbutyl]] | < 10 nM | 2000 to 10000 nM
CC(C)C[C@H](NC(=O)[C@H](CCCNC(=N)N[N+](=O)[O-])NC(=O)CCCC(=O)c1ccccc1)B(O)O [D.7.6, Boronic acid, [(1R)-1-[[(2S)-5-[[imino(nitroamino)methyl]amino]-2-[(5-oxo-5-phenylpentanoyl)amino]-1-oxopentyl]amino]-3-methylbutyl]] | < 10 nM | > 10000 nM
CC(C)C[C@H](NC(=O)[C@H](CCCNC(=N)N[N+](=O)[O-])NC(=O)CCc1ccccc1)B1O[C@@H]2C[C@@H]3C[C@@H](C3(C)C)[C@]2(C)O1 [D.3.49, 3-Phenylpropanamide,N-[(1S)-1-[[[(1R)-1-[(3aS,4S,6S,7aR)-hexahydro-3a,5,5-trimethyl-4,6-methano-1,3,2-benzodioxaborol-2-yl]-3-methylbutyl]amino]carbonyl]-4-[[imino(nitroamino)methyl]amino]butyl]] | < 10 nM | 200 to 2000 nM
CC(C)C[C@H](NC(=O)[C@H](CCCNC(=N)N[N+](=O)[O-])NC(=O)CSc1ccc2ccccc2c1)B1O[C@@H]2C[C@@H]3C[C@@H](C3(C)C)[C@]2(C)O1 [D.3.37] | < 10 nM | < 200 nM
Cc1cccc(/C=C/C(=O)N[C@@H](CCCNC(=N)N[N+](=O)[O-])C(=O)N[C@@H](CC(C)C)B2O[C@@H]3C[C@@H]4C[C@@H](C4(C)C)[C@]3(C)O2)c1 [D.3.57, 3-(3-Methylphenyl)acrylamide,N-[(1S)-1-[[[(1R)-1-[(3aS,4S,6S,7aR)-hexahydro-3a,5,5-trimethyl-4,6-methano-1,3,2-benzodioxaborol-2-yl]-3-methylbutyl]amino]carbonyl]-4-[[imino(nitroamino)methyl]amino]butyl]] | < 10 nM | < 200 nM
CCCCc1ccc(S(=O)(=O)N[C@@H](CCCNC(=N)N[N+](=O)[O-])C(=O)N[C@@H](CC(C)C)B2O[C@@H]3C[C@@H]4C[C@@H](C4(C)C)[C@]3(C)O2)cc1 [D.4.7, 4-Butyl-benzenesulfonamide, N-[(1S)-1-[[[(1R)-1-[(3aS,4S,6S,7aR)-hexahydro-3a,5,5-trimethyl-4,6-methano-1,3,2-benzodioxaborol-2-yl]-3-methylbutyl]amino]carbonyl]-4-[[imino(nitroamino)methyl]amino]butyl]] | < 100 nM | < 200 nM
CCCCc1ccc(NC(=O)N[C@@H](CCCNC(=N)N[N+](=O)[O-])C(=O)N[C@@H](CC(C)C)B2O[C@@H]3C[C@@H]4C[C@@H](C4(C)C)[C@]3(C)O2)cc1 [D.6.8, N-[(1S)-1-[[[(1R)-1-[(3aS,4S,6S,7aR)-hexahydro-3a,5,5-trimethyl-4,6-methano-1,3,2-benzodioxaborol-2-yl]-3-methylbutyl]amino]carbonyl]-4-[[imino(nitroamino)methyl]amino]butyl]-N′-(4-butylphenyl) urea] | < 100 nM | < 200 nM
CC(C)C[C@H](NC(=O)[C@H](CCCNC(=N)N[N+](=O)[O-])NC(=O)Cn1cnnn1)B1O[C@@H]2C[C@@H]3C[C@@H](C3(C)C)[C@]2(C)O1 [D.3.136] | < 10 nM | > 10000 nM
CC(C)C[C@H](NC(=O)[C@H](CCCNC(=N)N[N+](=O)[O-])NC(=O)CCCCCCCCC#N)B(O)O [D.7.61, Boronic acid, [(1R)-1-[[(2S)-5-[[imino(nitroamino)methyl]amino]-2-[(9-cyanononanoyl)amino]-1-oxopentyl]amino]-3-methylbutyl]] | < 10 nM | > 10000 nM
CC(C)C[C@H](NC(=O)[C@H](CCCNC(=N)N[N+](=O)[O-])NC(=O)CSc1ncccn1)B1O[C@@H]2C[C@@H]3C[C@@H](C3(C)C)[C@]2(C)O1 [D.3.137] | < 100 nM | 2000 to 10000 nM
Cc1cc(C(=O)N[C@@H](CCCNC(=N)N[N+](=O)[O-])C(=O)N[C@@H](CC(C)C)B(O)O)ccc1F [D.7.37] | < 10 nM | > 10000 nM
CC(C)C[C@H](NC(=O)[C@H](CCCNC(=N)N[N+](=O)[O-])NC(=O)Cc1ccccc1)B1O[C@@H]2C[C@@H]3C[C@@H](C3(C)C)[C@]2(C)O1 [D.3.3] | < 10 nM | 200 to 2000 nM
CC(C)C[C@H](NC(=O)[C@H](CCCNC(=N)N[N+](=O)[O-])NC(=O)Cc1ccccc1Cl)B1O[C@@H]2C[C@@H]3C[C@@H](C3(C)C)[C@]2(C)O1 [D.3.29, 2-(2-Chlorophenyl)acetamide,N-[(1S)-1-[[[(1R)-1-[(3aS,4S,6S,7aR)-hexahydro-3a,5,5-trimethyl-4,6-methano-1,3,2-benzodioxaborol-2-yl]-3-methylbutyl]amino]carbonyl]-4-[[imino(nitroamino)methyl]amino]butyl]] | < 10 nM | < 200 nM

More lines, now with the values ahead:

IC50 [1] | EC50 [2] | Compound
< 100 nM | > 10000 nM | CC(C)C[C@H](NC(=O)[C@H](CCCNC(=N)N[N+](=O)[O-])NC(=O)Cn1cnnn1)B(O)O [E.2.53, Boronic acid, [(1R)-1-[[(2S)-5-[[imino(nitroamino)methyl]amino]-2-[[2-(tetrazol-1-yl)acetyl]amino]-1-oxopentyl]amino]-3-methylbutyl]]
< 10 nM | > 10000 nM | CC(C)C[C@H](NC(=O)[C@H](CCCNC(=N)N[N+](=O)[O-])NC(=O)CCc1ccccc1)B(O)O [E.2.32, Boronic acid, [(1R)-1-[[(2S)-5-[[imino(nitroamino)methyl]amino]-2-[(3-phenylpropanoyl)amino]-1-oxopentyl]amino]-3-methylbutyl]]
< 100 nM | 2000 to 10000 nM | CC(C)C[C@H](NC(=O)[C@H](CCCNC(=N)N[N+](=O)[O-])NC(=O)C1CCCCN1C(=O)OC(C)(C)C)B(O)O (mixture of isomers) [E.2.81, Boronic acid, [(1R)-1-[[(2S)-5-[[imino(nitroamino)methyl]amino]-2-[[(2RS)-1-[(1,1-dimethylethoxy)carbonyl]piperidine-2-carbonyl]amino]-1-oxopentyl]amino]-3-methylbutyl]]
< 10 nM | < 200 nM | CCCCCCCCCC(=O)N[C@@H](CNC(=O)c1cccs1)C(=O)N[C@@H](CC(C)C)B(O)O [E.5.9]
< 10 nM | > 10000 nM | CC(C)C[C@H](NC(=O)[C@H](CCCNC(=N)N[N+](=O)[O-])NC(=O)[C@@H](C)c1ccccc1)B(O)O [E.2.16, Boronic acid, [(1R)-1-[[(2S)-5-[[imino(nitroamino)methyl]amino]-2-[((2S)-2-phenylpropanoyl)amino]-1-oxopentyl]amino]-3-methylbutyl]]
< 10 nM | > 10000 nM | CC(C)C[C@H](NC(=O)[C@H](CCCNC(=N)N[N+](=O)[O-])NC(=O)CCCC(=O)c1ccsc1)B(O)O [E.2.64, Boronic acid, [(1R)-1-[[(2S)-5-[[imino(nitroamino)methyl]amino]-2-[[5-oxo-5-(thiophen-3-yl)pentanoyl]amino]-1-oxopentyl]amino]-3-methylbutyl]]
< 10 nM | 2000 to 10000 nM | Cc1cccc(/C=C/C(=O)N[C@@H](CCCNC(=N)N[N+](=O)[O-])C(=O)N[C@@H](CC(C)C)B(O)O)c1 [E.2.33, Boronic acid, [(1R)-1-[[(2S)-5-[[imino(nitroamino)methyl]amino]-2-[[(E)-3-(3-methylphenyl)acryl]amino]-1-oxopentyl]amino]-3-methylbutyl]]
